US20060165672A1, “Fatigue reducing agent” (KANEKA CORPORATION, priority 2003, published 2006)

Columns and labels:
[1] = test system: male SD rats (61 to 63 weeks of age); test: Tread mill test in aged rats (maximum running time, crossover); type: in vivo, rat; details: for Maximum running time of aged rats (in words) / Maximum Running Time, Time prolonged / Maximum Running Time, After administration, relative to solvent control (100): 300 mg/kg oral; for Maximum Running Time, Time prolonged: after minus before administration; for Maximum Running Time, After administration, relative to solvent control (100) / Maximum Running Time, Before administration, relative to solvent control (100): value in parentheses; for Maximum Running Time, After administration: after 300 mg/kg oral dose; for Maximum Running Time, After administration / Maximum Running Time, Before administration: crossover; for Maximum Running Time, Before administration: baseline before 300 mg/kg oral dose
Method: (§1) The anti-fatigue effect of reduced coenzyme Q10 (note that it contained about 1% of oxidized coenzyme Q10) was evaluated in male SD rats (7 weeks of age, n=10) using a tread mill. A rat was forced to run at a speed of 10 m/min on the tread mill machine (Type NK-73-4, Natsume Seisakusho Co., Ltd.). Then the speed was increased stepwise by 5 m/min in every 3 min, and the time when the rat could no longer run was measured (the maximum running time). The soybean oil solution of reduced coenzyme Q10 according to the Reference Example 1 (reduced coenzyme Q10/soybean oil solution=20 mg/ml) was prepared as a test substance and orally administered to rats as reduced coenzyme Q10 (note that it contained about 1% of oxidized coenzyme Q10) with a dose of 300 mg/kg. The maximum running times were measured before administration and 2 hours after administration and a prolongation of the maximum running time was calculated. Soybean oil was administered to the control group.
The anti-fatigue effect of reduced coenzyme Q10 (containing about 1% of oxidized coenzyme Q10) was evaluated in male SD rats (61 to 63 weeks of age, n=7) in a manner similar to (Example 3). This experiment was performed using a crossover method. […]

[2] = test system: male SD rats (7 weeks of age); test: Tread mill test in young rats (maximum running time); type: in vivo, rat; details: for Maximum Running Time, Time prolonged: after minus before administration; for Maximum Running Time, After administration, relative to solvent control (100) / Maximum Running Time, Time prolonged, relative to solvent control (100) / Maximum Running Time, Before administration, relative to solvent control (100): value in parentheses; for Maximum Running Time, After administration: 2 hours after 300 mg/kg oral dose; for Maximum Running Time, Before administration: baseline before 300 mg/kg oral dose
Method: as §1
The anti-fatigue effect of oxidized coenzyme Q10 was evaluated in young rats in a manner similar to (Example 3).

[3] = Coenzyme Q level in the muscle after oral administration for 5 days (HPLC); type: in vivo, male SD rats
Method: (§2) Reduced coenzyme Q10 obtained in the Reference Example 1 (containing about 1% of oxidized coenzyme Q10) was dissolved in soybean oil solution (reduced coenzyme Q10/soybean oil solution=20 mg/ml) and orally administered to male SD rats (6 weeks of age) at a dose of 100 mg/kg of reduced coenzyme Q10 (containing about 1% of oxidized coenzyme Q10), once a day for 5 days. Five days later, the muscles of the femoral region were collected, and coenzyme Q level in the muscle was measured. The measurement of the coenzyme Q level in the muscle was performed using HPLC. The harvested rat muscle (0.2 g) was homogenized after the addition of coenzyme Q7 (0.003 mg), ethanol (1 ml), distilled water (1 ml) and ferric chloride (0.01%), and then hexane (3 ml) was added. Coenzyme Q10 was extracted from the homogenate after shaking. After repeating this extraction operation twice, the extract was brought to dryness by evaporating hexane out, re-dissolved in 0.25 ml ethanol and injected to HPLC. HPLC condition is as follows; column: YMC-Pack (ODS-A303), detection wavelength: 275 nm, mobile phase: methanol (88%), hexane (12%), flow rate: 1 ml/min. The measurement of the ratio of reduced coenzyme Q10 and oxidized coenzyme Q10 in the muscle was carried out as follows. The harvested rat muscle (0.2 g) was homogenized after the addition of distilled water (0.2 ml) and ethanol (0.8 ml), and the homogenate was extracted by adding hexane (1.2 ml). After evaporating hexane under a stream of nitrogen, the extract was re-dissolved in ethanol (0.2 ml) and injected to HPLC. The condition of the HPLC operation was the same as the above except that the electrochemical detector was used. Soybean oil was administered to the control group.
Similarly oxidized coenzyme Q10 was administered and then the coenzyme Q level in the muscle was measured.

[4] = Level of reduced coenzyme Q in the muscle after oral administration (HPLC, electrochemical detector); type: in vivo, male SD rats; details: for Intramuscular level of reduced coenzyme Q (in words): after administration
Method: as §2
The level of reduced coenzyme Q in the muscle was measured after administration of reduced coenzyme Q10 in a manner similar to (Example 1).
The level of reduced coenzyme Q in the muscle was measured after administration of oxidized coenzyme Q10 in a manner similar to (Comparative Example 1).

[5] = compared with oxidized coenzyme Q10, Japanese Patent Laid-Open No. 10-109933; cited from earlier work
[6] = femoral muscle, 100 mg/kg orally once a day for 5 days, rats 6 weeks of age
[7] = value in parentheses, control group = 100, 100 mg/kg orally, 5 days
[8] = femoral muscle, 100 mg/kg orally once a day for 5 days
[9] = value in parentheses, control group = 100

SMILES | Maximum running time of aged rats (in words) [1] | Maximum Running Time, Time prolonged [1] [s] | Maximum Running Time, After administration, relative to solvent control (100) [1] | Maximum Running Time, After administration [1] [s] | Maximum Running Time, Before administration [1] [s] | Maximum Running Time, Before administration, relative to solvent control (100) [1] | Maximum Running Time, Time prolonged ([2]; 300 mg/kg oral) [s] | Maximum Running Time, After administration, relative to solvent control (100) ([2]; 300 mg/kg oral) | Maximum Running Time, Time prolonged, relative to solvent control (100) ([2]; 300 mg/kg oral) | Maximum Running Time, After administration [2] [s] | Maximum Running Time, Before administration [2] [s] | Maximum Running Time, Before administration, relative to solvent control (100) [2] | Level of Coenzyme Q in Muscle, Q9 [3, 6] [µg/g] | Level of Coenzyme Q in Muscle, Total CoQ [3, 6] [µg/g] | Level of Coenzyme Q in Muscle, Q9, relative to control group (100) [3, 7] | Level of Coenzyme Q in Muscle, Total CoQ, relative to control group (100) [3, 7] | Intramuscular level of reduced coenzyme Q (in words) [4] | Level of Reduced Coenzyme Q in Muscle, Q9 [4, 8] [µg/g] | Level of Reduced Coenzyme Q in Muscle, Total CoQ [4, 8] [µg/g] | Level of Reduced Coenzyme Q in Muscle, Q9, relative to control group (100) [4, 9] | also measured
COC1=C(OC)C(=O)C(C/C=C(\C)CC/C=C(\C)CC/C=C(\C)CC/C=C(\C)CC/C=C(\C)CC/C=C(\C)CC/C=C(\C)CC/C=C(\C)CC/C=C(\C)CCC=C(C)C)=C(C)C1=O [Oxidized Coenzyme Q10, oxidized coenzyme Q10, reference compound] | no prolongation effect | 14 ± 43 | (105) | 875 ± 108 | 861 ± 123 | (100) | 190 ± 76 | (108**) | (339**) | 1733 ± 107 | 1543 ± 99 | (100) | 12.84 ± 2.03 | 14.18 ± 2.18 | (133) | (137) | decreased | 2.34 ± 0.42 | 2.45 ± 0.44 | (71*) | Anti-fatigue effect in young rats (in words, compared with reduced coenzyme Q10) ([2]; 300 mg/kg oral): about the same as that of reduced coenzyme Q10; Level of Reduced Coenzyme Q in Muscle, Q10, relative to control group (100) ([4]; rat, in vivo): (34**); Level of Reduced Coenzyme Q in Muscle, Total CoQ, relative to control group (100) [4, 9]: (68*)
COc1c(O)c(C)c(C/C=C(\C)CC/C=C(\C)CC/C=C(\C)CC/C=C(\C)CC/C=C(\C)CC/C=C(\C)CC/C=C(\C)CC/C=C(\C)CC/C=C(\C)CCC=C(C)C)c(O)c1OC [Reduced Coenzyme Q10, reduced coenzyme Q10] | significantly prolonged | 97 ± 28 | (115) | 958 ± 52 | 861 ± 123 | (100) | 196 ± 127 | (108*) | (349**) | 1719 ± 160 | 1523 ± 97 | (99) | 15.82 ± 2.89 | 17.39 ± 3.09 | (164*) | (168*) | increased | 5.32 ± 1.07 | 5.71 ± 1.16 | (162*) | Maximum running time of rats (in words) ([2]; 300 mg/kg oral): significantly prolonged; Endogenous coenzyme Q (in words) ([3]; after administration, endogenous = synthesized in vivo): increase of endogenous coenzyme Q; Level of Coenzyme Q in Muscle, Q10 [3, 6]: 1.57 ± 0.21 µg/g; Level of Coenzyme Q in Muscle, Q10, relative to control group (100) [3, 7]: (215**); Plasma level of coenzyme Q after oral administration (in words) [5]: raised the plasma level of coenzyme Q more than oral administration of oxidized coenzyme Q10; Level of Reduced Coenzyme Q in Muscle, Q10 [4, 8]: 0.39 ± 0.24 µg/g; Level of Reduced Coenzyme Q in Muscle, Q10, relative to control group (100) [4, 9]: (122); Level of Reduced Coenzyme Q in Muscle, Total CoQ, relative to control group (100) [4, 9]: (159*)
